US20150010928A1, “MEANS AND METHODS FOR ASSESSING AN ENDOCRINE DISEASE OR DISORDER” (priority 2012, published 2015)
Marks after values point to notes of the source that are not given here. Blank lines part the entries; values can stand above or below the compound they belong to.

Test system: female rats
Test: Plasma metabolite profiling (GC-MS, LC-MS, SPE-LC-MS) in female rats dosed once daily over 28 days (OECD 407)
Assay type: in vivo, rat
Design: key to TAG No 07 / Lysophosphatidylcholine (C17:0): ratio of treated group mean to untreated control group mean; key to 5-O-Methylsphingosine (d18:1) / Isopalmitic acid (C16:0) / Valine / Alanine / Ketoleucine / Serine / Lactate / Arginine: ratio of treated group mean to untreated control mean
Conditions: high dose; for Isopalmitic acid (C16:0): Table 17a; for Alanine / Arginine / Ketoleucine / Lactate / Proline / Serine / Valine: Table 17b; for 3-O-Methylsphingosine (d18:1) / 5-O-Methylsphingosine (d18:1) / 16-Methylheptadecanoic acid / Arachidonic acid (C20:cis[5,8,11,14]4) / Ceramide (d18:1, C24:1) / Ceramide (d18:1,C24:0) / Cholesterol / Cholesterolester No 01 / Dodecanol / Elaidic acid (C18:trans[9]1) / Galactose, lipid fraction / Glycerol phosphate, lipid fraction / Heptadecanoic acid (C17:0) / Lignoceric acid (C24:0) / Lysophosphatidylcholine (C17:0) / Phosphate, lipid fraction / Phosphatidylcholine (C18:0, C20:3) / Phytosphingosine / Sphingomyelin (d18:1, C16:0) / Sphingomyelin (d18:1,C24:0) / Sphingomyelin (d18:2, C16:0) / Sphingomyelin (d18:2,C18:0) / Stearic acid (C18:0) / TAG No 07 / Tricosanoic acid (C23:0) / alpha-Tocopherol / beta-Sitosterol / erythro-Sphingosine (d18:1) / myo-Inositol, lipid fraction / myo-Inositol-2-phosphate, lipid fraction / threo-Sphingosine (d18:1): Table 13b
Protocol: Each dose group in the studies consisted of five rats per sex. Additional groups of each 5 male and female animals served as controls. […] All animals of the animal population were kept under the same constant temperature (20-24±3° C.) and the same constant humidity (30-70%). The animals of the animal population were fed ad libitum. The food to be used was essentially free of chemical or microbial contaminants. Drinking water was also offered ad libitum. Accordingly, the water was free of chemical and microbial contaminants as laid down in the European Drinking Water Directive 98/83/EG. The illumination period was 12 hours light followed by 12 hours darkness (12 hours light, from 6:00 to 18:00, and 12 hours darkness, from 18:00 to 6:00). […] The test substances (compounds) in the Tables 1 to 17 below were dosed and administered as described in the Table 18.
In the morning of day 7, 14, and 28, blood was taken from the retroorbital venous plexus from fasted anaesthetized animals. From each animal, 1 ml of blood was collected with EDTA as anticoagulant. The samples were centrifuged for generation of plasma. All plasma samples were covered with a N2 atmosphere and then stored at −80° C. until analysis.
For mass spectrometry-based metabolite profiling analyses plasma samples were extracted and a polar and a non-polar (lipid) fraction was obtained. For GC-MS analysis, the non-polar fraction was treated with methanol under acidic conditions to yield the fatty acid methyl esters. Both fractions were further derivatised with O-methyl-hydroxyamine hydrochloride and pyridine to convert Oxogroups to O-methyloximes and subsequently with a silylating agent before analysis. In LC-MS analysis, both fractions were reconstituted in appropriate solvent mixtures. HPLC was performed by gradient elution on reversed phase separation columns. Mass spectrometric detection which allows target and high sensitivity MRM (Multiple Reaction Monitoring) profiling in parallel to a full screen analysis was applied as described in WO2003073464.
Steroids and their metabolites were measured by online SPE-LC-MS (Solid phase extraction-LC-MS).
Following comprehensive analytical validation steps, the data for each analyte were normalized against data from pool samples. These samples were run in parallel through the whole process to account for process variability. The significance of treatment group values specific for sex, treatmentduration and metabolite was determined by comparing means of the treated groups to the means of the respective untreated control groups using WELCH-test and quantified with treatment ratios versus control and p-values.
The identification of the most important biomarkers per toxicity pattern was done by a ranking of the analytes in the tables below. Therefore the metabolic changes in reference treatments of a given pattern (shown in the table) were compared with changes of the same metabolite in other unrelated treatments. […] The maximum absolute value of the respective TVALUE was taken to indicate the most important metabolite for the pattern.

SMILES: CN(N=O)C(=O)N[C@H]1C(O)O[C@H](CO)[C@@H](O)[C@@H]1O (mixture of isomers) [Streptozotocin]
- Isopalmitic acid (C16:0) (f7, female rats): 0.99
- Alanine (f7, female rats): 0.79
- Arginine (f7, female rats): 0.78
- Ketoleucine (f7, female rats): 0.85
- Lactate (f7, female rats): 0.77
- Proline (f7, female rats): 0.81
- Serine (f7, female rats): 0.88
- Valine (f7, female rats): 0.77
- Isopalmitic acid (C16:0) (f14, female rats): 1.12 *
- Alanine (f14, female rats): 0.91
- Arginine (f14, female rats): 0.88
- Ketoleucine (f14, female rats): 0.9
- Lactate (f14, female rats): 0.83
- Proline (f14, female rats): 0.83
- Serine (f14, female rats): 0.83
- Valine (f14, female rats): 0.85
- Isopalmitic acid (C16:0) (f28, female rats): 1.3 *
- Alanine (f28, female rats): 0.87
- Arginine (f28, female rats): 1.03
- Ketoleucine (f28, female rats): 0.87
- Lactate (f28, female rats): 0.57
- Proline (f28, female rats): 0.9
- Serine (f28, female rats): 0.98
- Valine (f28, female rats): 0.98

- 3-O-Methylsphingosine (d18:1) (f7): 0.68 *
- 5-O-Methylsphingosine (d18:1) (f7): 0.66 *
- 16-Methylheptadecanoic acid (f7): 0.57 *
- Arachidonic acid (C20:cis[5,8,11,14]4) (f7): 0.71 *
- Ceramide (d18:1, C24:1) (f7): 0.57 *
- Ceramide (d18:1,C24:0) (f7): 0.53 *
- Cholesterol (f7): 0.72 *
- Cholesterolester No 01 (f7): 0.84^
- Dodecanol (f7): 0.84 *
- Elaidic acid (C18:trans[9]1) (f7): 0.66 *
- Galactose, lipid fraction (f7): 0.79^
- Glycerol phosphate, lipid fraction (f7): 0.72 *
- Heptadecanoic acid (C17:0) (f7): 0.85^
- Lignoceric acid (C24:0) (f7): 0.54 *
- Lysophosphatidylcholine (C17:0) (f7): 0.83 *
- Phosphate, lipid fraction (f7): 0.73 *
- Phosphatidylcholine (C18:0, C20:3) (f7): 0.85 *
- Phytosphingosine (f7): 0.64 *
- Sphingomyelin (d18:1, C16:0) (f7): 0.94^
- Sphingomyelin (d18:1,C24:0) (f7): 0.84 *
- Sphingomyelin (d18:2, C16:0) (f7): 0.67 *
- Sphingomyelin (d18:2,C18:0) (f7): 0.89 *
- Stearic acid (C18:0) (f7): 0.79 *
- TAG No 07 (f7): 0.91^
- Tricosanoic acid (C23:0) (f7): 0.71 *
- alpha-Tocopherol (f7): 0.82^
- beta-Sitosterol (f7): 0.46 *
- erythro-Sphingosine (d18:1) (f7): 0.66 *
- myo-Inositol, lipid fraction (f7): 0.87 *
- myo-Inositol-2-phosphate, lipid fraction (f7): 0.61 *
- threo-Sphingosine (d18:1) (f7): 0.75 *
- 3-O-Methylsphingosine (d18:1) (f14): 0.36 *
- 5-O-Methylsphingosine (d18:1) (f14): 0.34 *
- 16-Methylheptadecanoic acid (f14): 0.59 *
- Arachidonic acid (C20:cis[5,8,11,14]4) (f14): 0.32 *
- Ceramide (d18:1, C24:1) (f14): 0.6 *
- Ceramide (d18:1,C24:0) (f14): 0.57 *
- Cholesterol (f14): 0.36 *
- Cholesterolester No 01 (f14): 0.79 *
- Dodecanol (f14): 0.44 *
- Elaidic acid (C18:trans[9]1) (f14): 0.5 *
- Galactose, lipid fraction (f14): 0.48 *
- Glycerol phosphate, lipid fraction (f14): 0.34 *
- Heptadecanoic acid (C17:0) (f14): 0.61 *
- Lignoceric acid (C24:0) (f14): 0.33 *
- Lysophosphatidylcholine (C17:0) (f14): 0.72 *
- Phosphate, lipid fraction (f14): 0.57 *
- Phosphatidylcholine (C18:0, C20:3) (f14): 0.72 *
- Phytosphingosine (f14): 0.55 *
- Sphingomyelin (d18:1, C16:0) (f14): 0.79 *
- Sphingomyelin (d18:1,C24:0) (f14): 0.62 *
- Sphingomyelin (d18:2, C16:0) (f14): 0.58 *
- Sphingomyelin (d18:2,C18:0) (f14): 0.67 *
- Stearic acid (C18:0) (f14): 0.42 *
- TAG No 07 (f14): 0.73 *
- Tricosanoic acid (C23:0) (f14): 0.55 *
- alpha-Tocopherol (f14): 0.4 *
- beta-Sitosterol (f14): 0.3 *
- erythro-Sphingosine (d18:1) (f14): 0.37 *
- myo-Inositol, lipid fraction (f14): 0.48 *
- myo-Inositol-2-phosphate, lipid fraction (f14): 0.31 *
- threo-Sphingosine (d18:1) (f14): 0.44 *
- 3-O-Methylsphingosine (d18:1) (f28): 0.11 *
- 5-O-Methylsphingosine (d18:1) (f28): 0.13 *
- 16-Methylheptadecanoic acid (f28): 0.28 *
- Arachidonic acid (C20:cis[5,8,11,14]4) (f28): 0.16 *
- Ceramide (d18:1, C24:1) (f28): 0.39 *
- Ceramide (d18:1,C24:0) (f28): 0.36 *
- Cholesterol (f28): 0.16 *
- Cholesterolester No 01 (f28): 0.56 *
- Dodecanol (f28): 0.27 *
- Elaidic acid (C18:trans[9]1) (f28): 0.33 *
- Galactose, lipid fraction (f28): 0.24 *
- Glycerol phosphate, lipid fraction (f28): 0.19 *
- Heptadecanoic acid (C17:0) (f28): 0.47 *
- Lignoceric acid (C24:0) (f28): 0.15 *
- Lysophosphatidylcholine (C17:0) (f28): 0.57 *
- Phosphate, lipid fraction (f28): 0.36 *
- Phosphatidylcholine (C18:0, C20:3) (f28): 0.59 *
- Phytosphingosine (f28): 0.34 *
- Sphingomyelin (d18:1, C16:0) (f28): 0.51 *
- Sphingomyelin (d18:1,C24:0) (f28): 0.36 *
- Sphingomyelin (d18:2, C16:0) (f28): 0.33 *
- Sphingomyelin (d18:2,C18:0) (f28): 0.3 *
- Stearic acid (C18:0) (f28): 0.28 *
- TAG No 07 (f28): 0.4 *
- Tricosanoic acid (C23:0) (f28): 0.23 *
- alpha-Tocopherol (f28): 0.16 *
- beta-Sitosterol (f28): 0.13 *
- erythro-Sphingosine (d18:1) (f28): 0.13 *
- myo-Inositol, lipid fraction (f28): 0.23 *
- myo-Inositol-2-phosphate, lipid fraction (f28): 0.08 *
- threo-Sphingosine (d18:1) (f28): 0.24 *
SMILES: C=CCN1C[C@H](C(=O)N(CCCN(C)C)C(=O)NCC)C[C@@H]2c3cccc4[nH]cc(c34)C[C@H]21 [Cabergoline]

- Isopalmitic acid (C16:0) (f7, female rats): 0.83 *
- Alanine (f7, female rats): 0.63
- Arginine (f7, female rats): 0.74
- Ketoleucine (f7, female rats): 1.04
- Lactate (f7, female rats): 1.22
- Proline (f7, female rats): 0.81
- Serine (f7, female rats): 0.85
- Valine (f7, female rats): 0.91
- Isopalmitic acid (C16:0) (f14, female rats): 0.84
- Alanine (f14, female rats): 0.72
- Arginine (f14, female rats): 0.93
- Ketoleucine (f14, female rats): 0.94
- Lactate (f14, female rats): 0.66
- Proline (f14, female rats): 0.88
- Serine (f14, female rats): 0.98
- Valine (f14, female rats): 0.94
- Isopalmitic acid (C16:0) (f28, female rats): 1.53 *
- Alanine (f28, female rats): 0.84
- Arginine (f28, female rats): 0.92
- Ketoleucine (f28, female rats): 0.88
- Lactate (f28, female rats): 0.83
- Proline (f28, female rats): 0.85
- Serine (f28, female rats): 1.03
- Valine (f28, female rats): 1.14
SMILES: CCOC(=O)C(C)(C)Oc1ccc(Cl)cc1 [Clofibrate]
